# Laboratory results as given in the supplement of paper PMC10307832.
# Tests used:
# Test in all cases: relative viability (nuclei count vs DMSO), 5 days (fraction); higher = more cells survive
# [1] = system: NCI-H650
# How it was run: (§1)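 Lung cancer cell lines, seeded in 1536-well plates, were treated the following day by pin tool with a single drug or with five library-drug doses (not always all listed) in √10 steps on top of a fixed anchor-drug dose. Cells were fixed and nuclei stained in one step after 5 days, and nuclei were counted. Relative viability is the nuclei count for treated wells divided by that for vehicle wells, reported as medians of duplicate plates.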
# [2] = system: NCI-H2347
# How it was run: as §1
# [3] = system: EMC-BAC-2
# How it was run: as §1
# [4] = system: LOU-NH91
# How it was run: as §1
# [5] = system: HCC-44
# How it was run: as §1
# [6] = system: NCI-H23
# How it was run: as §1
# [7] = system: NCI-H727
# How it was run: as §1
# [8] = system: HARA
# How it was run: as §1
# [9] = system: NCI-H2087
# How it was run: as §1
# [10] = system: NCI-H1993
# How it was run: as §1
# [11] = system: NCI-H2126
# How it was run: as §1
# [12] = system: NCI-H1395
# How it was run: as §1
# [13] = system: NCI-H3122
# How it was run: as §1
# [14] = system: NCI-H647
# How it was run: as §1
# [15] = system: 201T
# How it was run: as §1
# [16] = system: NCI-H441
# How it was run: as §1
# [17] = system: NCI-H596
# How it was run: as §1
# [18] = system: LCLC-103H
# How it was run: as §1
# [19] = system: BEN
# How it was run: as §1
# [20] = system: NCI-H522
# How it was run: as §1
# [21] = system: NCI-H838
# How it was run: as §1
# [22] = system: NCI-H2023
# How it was run: as §1
smiles,measurement,setting,value
Cc1sc2c(c1C)C(c1ccc(Cl)cc1)=N[C@@H](CC(=O)OC(C)(C)C)c1nnc(C)n1-2 [JQ1] + O=C(CCCCCCC(=O)Nc1ccccc1)NO [Vorinostat] (partner 1 µM),relative viability,[1]; first compound 0.04 µM,0.43
same,relative viability,[1]; first compound 0.1265 µM,0.295
same,relative viability,[1]; first compound 0.4 µM,0.425
same,relative viability,[1]; first compound 1.265 µM,0.242
same,relative viability,[1]; first compound 4 µM,0.192
same,relative viability,[2]; first compound 0.04 µM,0.615
same,relative viability,[2]; first compound 0.1265 µM,0.521
same,relative viability,[2]; first compound 0.4 µM,0.463
same,relative viability,[2]; first compound 1.265 µM,0.282
same,relative viability,[2]; first compound 4 µM,0.259
same,relative viability,[3]; first compound 0.04 µM,0.423
same,relative viability,[3]; first compound 0.4 µM,0.367
same,relative viability,[3]; first compound 1.265 µM,0.281
same,relative viability,[3]; first compound 4 µM,0.237
same,relative viability,[4]; first compound 0.04 µM,0.912
same,relative viability,[4]; first compound 0.1265 µM,0.718
same,relative viability,[4]; first compound 0.4 µM,0.442
same,relative viability,[4]; first compound 1.265 µM,0.388
same,relative viability,[4]; first compound 4 µM,0.402
same,relative viability,[5]; first compound 0.04 µM,1.12
same,relative viability,[5]; first compound 0.1265 µM,1.03
same,relative viability,[5]; first compound 0.4 µM,0.965
same,relative viability,[5]; first compound 1.265 µM,0.788
same,relative viability,[5]; first compound 4 µM,0.578
same,relative viability,[6]; first compound 0.04 µM,0.547
same,relative viability,[6]; first compound 0.1265 µM,0.586
same,relative viability,[6]; first compound 0.4 µM,0.44
same,relative viability,[6]; first compound 1.265 µM,0.168
same,relative viability,[6]; first compound 4 µM,0.141
same,relative viability,[7]; first compound 0.04 µM,1.47
same,relative viability,[7]; first compound 0.1265 µM,1.14
same,relative viability,[7]; first compound 0.4 µM,0.954
same,relative viability,[7]; first compound 1.265 µM,1.08
same,relative viability,[7]; first compound 4 µM,0.621
same,relative viability,[8]; first compound 0.04 µM,0.464
same,relative viability,[8]; first compound 0.1265 µM,0.514
same,relative viability,[8]; first compound 0.4 µM,0.396
same,relative viability,[8]; first compound 1.265 µM,0.347
same,relative viability,[8]; first compound 4 µM,0.301
same,relative viability,[9]; first compound 0.04 µM,0.63
same,relative viability,[9]; first compound 0.1265 µM,0.38
same,relative viability,[9]; first compound 0.4 µM,0.668
same,relative viability,[9]; first compound 1.265 µM,0.316
same,relative viability,[9]; first compound 4 µM,0.127
same,relative viability,[10]; first compound 0.04 µM,0.851
same,relative viability,[10]; first compound 0.1265 µM,0.785
same,relative viability,[10]; first compound 0.4 µM,0.613
same,relative viability,[10]; first compound 1.265 µM,0.388
same,relative viability,[10]; first compound 4 µM,0.362
same,relative viability,[11]; first compound 0.04 µM,0.725
same,relative viability,[11]; first compound 0.1265 µM,0.767
same,relative viability,[11]; first compound 0.4 µM,0.583
same,relative viability,[11]; first compound 1.265 µM,0.382
same,relative viability,[11]; first compound 4 µM,0.346
same,relative viability,[12]; first compound 0.04 µM,0.662
same,relative viability,[12]; first compound 0.1265 µM,0.619
same,relative viability,[12]; first compound 0.4 µM,0.694
same,relative viability,[12]; first compound 1.265 µM,0.479
same,relative viability,[12]; first compound 4 µM,0.473
same,relative viability,[13]; first compound 0.04 µM,1.01
same,relative viability,[13]; first compound 0.1265 µM,0.506
same,relative viability,[13]; first compound 0.4 µM,1.02
same,relative viability,[13]; first compound 1.265 µM,1.04
same,relative viability,[13]; first compound 4 µM,0.664
same,relative viability,[14]; first compound 0.04 µM,0.615
same,relative viability,[14]; first compound 0.1265 µM,0.373
same,relative viability,[14]; first compound 0.4 µM,0.406
same,relative viability,[14]; first compound 1.265 µM,0.0648
same,relative viability,[14]; first compound 4 µM,0.062
same,relative viability,[15]; first compound 0.04 µM,0.952
same,relative viability,[15]; first compound 0.4 µM,0.73
same,relative viability,[15]; first compound 1.265 µM,0.46
same,relative viability,[15]; first compound 4 µM,0.367
same,relative viability,[16]; first compound 0.04 µM,0.64
same,relative viability,[16]; first compound 0.1265 µM,0.943
same,relative viability,[16]; first compound 0.4 µM,0.886
same,relative viability,[16]; first compound 1.265 µM,0.303
same,relative viability,[16]; first compound 4 µM,0.199
same,relative viability,[17]; first compound 0.04 µM,0.683
same,relative viability,[17]; first compound 0.1265 µM,0.643
same,relative viability,[17]; first compound 0.4 µM,0.436
same,relative viability,[17]; first compound 1.265 µM,0.292
same,relative viability,[17]; first compound 4 µM,0.311
same,relative viability,[18]; first compound 0.04 µM,0.832
same,relative viability,[18]; first compound 0.1265 µM,0.536
same,relative viability,[18]; first compound 0.4 µM,0.581
same,relative viability,[18]; first compound 1.265 µM,0.455
same,relative viability,[18]; first compound 4 µM,0.375
same,relative viability,[19]; first compound 0.04 µM,0.503
same,relative viability,[19]; first compound 0.1265 µM,0.545
same,relative viability,[19]; first compound 0.4 µM,0.494
same,relative viability,[19]; first compound 1.265 µM,0.456
same,relative viability,[19]; first compound 4 µM,0.351
same,relative viability,[20]; first compound 0.04 µM,0.984
same,relative viability,[20]; first compound 0.1265 µM,0.71
same,relative viability,[20]; first compound 0.4 µM,0.737
same,relative viability,[20]; first compound 1.265 µM,0.497
same,relative viability,[20]; first compound 4 µM,0.368
same,relative viability,[21]; first compound 0.04 µM,0.703
same,relative viability,[21]; first compound 0.1265 µM,0.322
same,relative viability,[21]; first compound 0.4 µM,0.488
same,relative viability,[21]; first compound 1.265 µM,0.277
same,relative viability,[21]; first compound 4 µM,0.319
same,relative viability,[22]; first compound 0.04 µM,0.6
same,relative viability,[22]; first compound 0.1265 µM,0.372
same,relative viability,[22]; first compound 0.4 µM,0.44
same,relative viability,[22]; first compound 1.265 µM,0.156
same,relative viability,[22]; first compound 4 µM,0.106
